Experimental data reported in patent publication US20160213041A1, “NUTRITIONAL COMPOSITION HAVING LIPOPHILIC COMPOUNDS WITH IMPROVED SOLUBILITY AND BIOAVAILABILITY” (ABBOTT LABORATORIES, priority 2013, published 2016).

Assays:
[1] = Centrifugation/ultrafiltration analysis of lutein and MDG in MDG batches (Example 60); type: physicochemical; conditions: centrifugation at 1,000×g, samples with NFDM
Protocol: A study was conducted to further investigate the distribution of lutein and MDG within the nutritional composition. Samples included MDG/lutein/water; MDG/lutein/NFDM/water; MDG/lutein/WPC/water; and MDG/water.
The premixes were provided as follows: in samples that contained lutein, lutein was heated for 2 h at 50° C. with shaking. […] In samples that contained protein, non-fat dried milk was added to water (50-60° C.) with agitation and allowed to hydrate for approximately 10 min.
The samples were prepared as follows: for solution 1, water was heated to 50-60° C., an lutein in GMO-40 blend and turrax (30 sec 10000 rpm) was added; for solution 2, NFDM was placed in water solution heated to 50-60° C., and lutein was added in GMO-40 blend and turrax (30 sec 10000 rpm); for solution 3, water was heated to 50-60° C., and GMO-40 blend and turrax (30 sec 10000 rpm) was added. The solutions are listed in the table below as X.1, wherein 1 is the solution.
Samples were formulated as detailed above, and then characterized by ultrafiltration with various membranes, as well as ultracentrifuged at various times and speed (e.g., 100,000×g, 4,500×g, and 1,000×g). The details of the different centrifugation/filtration method are listed below. […]

[2] = Distribution of lutein and MDG over cream, aqueous and pellet layers after 100,000×g (Example 58); type: physicochemical; conditions: 100,000×g for 1 hour
Protocol: A study was conducted to investigate the distribution of lutein and MDG within the nutritional compositions. Sample were prepared using homogenization at 150/20 bar, and then centrifuged at 100,000×g for 1 hour. The different layers (e.g., cream, aqueous, and pellet) were then analyzed for the presence of lutein and MDG.

[3] = 33° C.; cited from earlier work

Row | lutein found in the aqueous phase [1] [%] | lutein contained in the pellet [2] | present in the aqueous phase following centrifugation ([2]; nutritional compositions comprising MDG, of the nutritional composition) | Compound | reported solubility limit in water [3] [mg/kg]
1 | ~20 | approximately 1% | approximately 4 wt % | CC1=C[C@H](O)CC(C)(C)[C@H]1/C=C/C(C)=C/C=C/C(C)=C/C=C/C=C(C)/C=C/C=C(C)/C=C/C1=C(C)C[C@@H](O)CC1(C)C [lutein] | –
2 | – | – | – | vitamin E | 20.9
